Assay results taken from PMC6028453, “BrlR from Pseudomonas aeruginosa is a receptor for both cyclic di-GMP and pyocyanin” (Nature Communications, 2018).

Key:
BrlR [1] = target: T1, BrlR (Pseudomonas aeruginosa, UniProt Q9HUT5); assay: Surface plasmon resonance (SPR) analysis; type: binding; conditions: SPR, immobilized BrlR; for Kd: steady state, 25 °C
T1 construct: His6-SUMO (N, cleaved yes); made in house; host or cells: E. coli BL21 DE3
Protocol: The binding affinity of diverse toxic compounds for BrlR were investigated by SPR using a BIAcore-T200 apparatus (GE Healthcare). The ligand, BrlR (20 μM in 10 mM sodium acetate, pH 4.5), was immobilized on an activated CM5 sensor chip by amine coupling (BIAcore) with 4400 response units (RU), and the unreacted sites were blocked with 1.0 M ethanolamine–HCl (pH 8.5). Steady-state binding analysis was performed with injections of different molecules at different concentrations over the immobilized BrlR surface at a flow rate of 20 μL min^−1 at 25 °C. Association was measured for 180 s, followed by 120 s of dissociation in running buffer (20 mM Hepes pH 7.5, 150 mM NaCl). The sensorgrams for specific interactions were obtained by subtracting the reference unimmobilized flow cell response from that of the sample. Since BrlR only has one binding site for pyocyanin or other toxic compounds (Fig. 5a–f), the kinetic analysis of the sensorgrams from analyte interaction with the immobilized BrlR was performed by fitting the binding curves to a 1:1 binding model. To determine the steady state KD values, equilibrium responses were plotted against analyte concentrations, and the resulting curves were fitted to the steady state model in the BIAevaluation software package, version 3.0 (GE Healthcare).

brlR transcription = assay: qRT-PCR of brlR transcript; type: cell-based, P. aeruginosa PAO1; conditions: ΔphzMSH strain still produces PCA; strain PAO1
Protocol: PAO1 WT strains were grown under different conditions. For c-di-GMP effects, overexpression of PA4843 in PAO1 (PAO1/pHERD20T-PA4843) relative to WT cells (PAO1/ pHERD20T) was determined. When P. aeruginosa strains entered mid-log phase, arabinose was added to induce gene expression. To test pyocyanin’s effect, a P. aeruginosa PAO1 WT strain cells with high pyocyanin production was determined relative to a ΔphzA1-G1/phzA2-G2 strain not producing phenazine and a ΔphzMSH strain not producing pyocyanin.
Total RNA was extracted using a MiniBEST Universal RNA Extraction Kit (TaKaRa) and cDNA synthesis was performed using a PrimeScript RT reagent Kit (TaKaRa). Primers for RT-PCR listed in Supplementary Table 1 were designed using the program PrimerExpress (Applied Biosystems). The RT-PCR reactions were performed on a CFX96 Real-Time PCR Detection System (Bio-Rad) using SYBR Premix Ex Taq™ (TaKaRa). Expression of the target genes was normalized to the expression of 16 S RNA. The relative transcript abundance was calculated according to the 2^−ΔΔCt method. Five biological replicates were performed per sample. The data were analyzed with a one-tailed t-test (***P ≤ 0.001).

BrlR-DNA binding (PbrlR) = target: T2, BrlR-DNA binding (PbrlR) (Pseudomonas aeruginosa, UniProt Q9HUT5); assay: EMSA, wild-type BrlR with PbrlR DNA; type: biochemical; conditions: wild-type BrlR, increasing concentrations of compound
T2 construct: His6-SUMO (N, cleaved yes); made in house; host or cells: E. coli BL21 DE3
Protocol: A 6-carboxy-fluorescein (FAM)-labeled 36-bp brlR promoter DNA (PbrlR) or 80-bp mexA/mexE promoter DNA (PmexA/PmexE) probes (~0.375 pmol), BrlR protein and varying amounts of inducers were incubated in binding buffer (10 mM Tris HCl [pH 7.4], 50 mM KCl, 1 mM DTT, […] and 5 ng/mL poly [dI-dC]) for 60 min at 25 °C. Finally, glycerol was added to a concentration of 6.5%. The samples were subjected to a 5% polyacrylamide gel electrophoresis and run in 0.5 × Tris-borate-EDTA buffer at 80 V for 1 h at room temperature. Imaging and data analyses were performed using a Typhoon Scanner (GE Healthcare) and Imagequant software. The probes used are listed in Supplementary Table 1.

BrlR [2] = target: T1, BrlR; assay: Fluorescence polarization (FP) binding assay, wild-type BrlR; conditions: 1 nM fluorescent ligand, 25 °C
Source text: The most striking feature of the BrlR–c-di-GMP complex is the c-di-GMP-binding mode. The DNA-binding domain contains two separate c-di-GMP-binding sites, and shares a mutually intercalated c-di-GMP dimer in a stacking conformation with a crystallographic symmetry related binding site (Fig. 2a–c). […] The interactions stabilizing the c-di-GMPs are different for the two binding sites (Fig. 2d, e, and details are described in Supplementary Note 1). […] This structural feature allows us to perform fluorescence polarization (FP)-based binding assays[19],[23],[24] by using a fluoresceinated c-di-GMP analog, 2′-Fluo-AHC-c-di-GMP (F-c-di-GMP), containing a fluorophore attached to one of the 2′-ribose hydroxyls (Fig. 2f).
F-c-di-GMP and F-c-di-AMP both contain a fluorophore at one of the 2′-ribose hydroxyls of c-di-GMP and c-di-AMP, respectively (Fig. 2f). To measure the binding of c-di-GMP and c-di-AMP to BrlR variants, 1 nM F-c-di-GMP or F-c-di-AMP was incubated with increasing amounts of indicated BrlR WT, BrlR mutation, or BrlR-C in reaction buffer (25 mM HEPES, 100 mM NaCl, pH 7.5) at 25 °C for 20 min. 1 nM fluorescein was incubated with BrlR WT in the same reaction buffer at 25 °C. FP measurements were conducted on a Synergy 4 Microplate Reader (BioTek) at 25 °C. All experiments were performed in triplicate. The curves were fitted to deduce binding affinities by GraphPad Prism 5.

BrlR-C = target: T3, BrlR-C (Pseudomonas aeruginosa, UniProt Q9HUT5); assay: FP competition experiment, BrlR-C; type: binding; conditions: 550 μM BrlR-C, 1 nM F-c-di-GMP
T3 construct: His6 (cleaved yes); made in house; host or cells: E. coli (same protocol as BrlR, induction at 18 °C)
Protocol: Supplementary Figure 11: FP analyses of F-c-di-GMP binding to BrlR-C. (a) Isotherms of BrlR-C binding to F-c-di-GMP. The binding experiment was carried out at 25 °C in a buffer containing 150 mM NaCl, 25 mM Tris·HCl (pH 7.5), and 1 nM F-c-di-GMP. Increasing concentrations of BrlR-C were titrated into the reaction mixture to obtain the binding isotherms. (b) Fluorescence polarization competition experiment of BrlR-C. As a control, 550 μM BrlR-C was added to the reaction tube containing 1 nM F-c-di-GMP, and different competitors were respectively added in the solution and the values of millipolarization were recorded.
(1 picture or pasted object on this page, not shown here)

P. aeruginosa PAO1 = assay: Planktonic antibiotic susceptibility testing, PAO1; type: cell-based, Pseudomonas aeruginosa; conditions: for decrease of CFU number (log reduction): PAO1, 50 μg/ml tobramycin 1 h; for reduction in CFU number: cells harboring pHERD20T-PA2133 (low c-di-GMP), 50 μg/ml tobramycin 1 h
Protocol: To determine the role of pyocyanin in antimicrobial susceptibility, P. aeruginosa strains (Supplementary Table 2) were grown at 37 °C in 20-fold diluted LB medium supplemented with or without 0.2 mM pyocyanin, which was purified from stationary phase cultures of PAO1. Tobramycin was added to the mid-log phase (OD600 = 0.8) cells suspension to a final concentration of 50 μg/ml; after 1 h, the broth was serially diluted and spread-printed onto LB agar (medium containing 300 μg/ml carbenicillin was used for the cells harboring plasmid) to determine the cell viability via CFU counts. The cell suspensions without tobramycin were set as controls. Susceptibility is expressed as a logarithmic reduction in CFU amount. The data were analyzed with a one-tailed t-test (***P ≤ 0.001).

BrlR [3] = target: T4, BrlR (UniProt Q9HUT5 1-270); assay: EMSA; pyocyanin (enhances); conditions: protein: recombinant; tags: none (His6-SUMO removed); chain copies: 4; label: 5' FAM on strand 1; blunt
T4 sequence: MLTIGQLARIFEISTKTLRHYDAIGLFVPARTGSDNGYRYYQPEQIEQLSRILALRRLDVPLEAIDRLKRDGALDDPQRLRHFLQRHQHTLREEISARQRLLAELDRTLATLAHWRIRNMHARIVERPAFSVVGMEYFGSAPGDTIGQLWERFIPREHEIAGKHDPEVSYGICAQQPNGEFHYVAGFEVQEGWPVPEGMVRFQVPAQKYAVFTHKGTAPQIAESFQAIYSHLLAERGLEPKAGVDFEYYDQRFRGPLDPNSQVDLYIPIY

[4] = target: the molecule itself; assay: crystal structure; apo-BrlR, 3.1 Å, space group P65, four BrlR molecules in the asymmetric unit; crystals from 1.8 M sodium acetate pH 7.0, 0.1 M Bis-Tris propane pH 7.0, 20 °C

Nc1ncnc2c1ncn2[C@@H]1O[C@H](COP(=O)(O)O)[C@@H](O)[C@H]1O [AMP]
binding to BrlR in SPR (in words) (BrlR [1]): does not bind

CNC(C)C1CCC(N)C(OC2C(N)CC(N)C(OC3OCC(C)(O)C(NC)C3O)C2O)O1 (centres unmarked) [Gentamicin]
Kd (BrlR [1]): ~470 µM

O=C(O)c1cccc2nc3ccccc3nc12 [PCA, phenazine-1-carboxylic acid]
effect on brlR transcription (brlR transcription): could not up-regulate

Nc1ncnc2c1ncn2[C@@H]1O[C@@H]2COP(=O)(O)O[C@H]3[C@@H](O)[C@H](n4cnc5c(N)ncnc54)O[C@@H]3COP(=O)(O)O[C@H]2[C@H]1O [c-di-AMP]
effect on BrlR-PbrlR DNA binding (in words) (BrlR-DNA binding (PbrlR)): significantly promoted

O=C1OC2(c3ccc(O)cc3Oc3cc(O)ccc32)c2ccccc21 [fluorescein]
Kd (BrlR [2]): 33.6 ± 1.6 µM

CCn1cc(C(=O)O)c(=O)c2cc(F)c(N3CCNCC3)cc21 [norfloxacin]
binding to BrlR in SPR (in words) (BrlR [1]): signals were not sufficiently high

CN(C)[C@@H]1C(O)=C(C(N)=O)C(=O)[C@@]2(O)C(O)=C3C(=O)c4c(O)cccc4[C@@](C)(O)[C@H]3C[C@@H]12 [tetracycline]
binding to BrlR in SPR (in words) (BrlR [1]): signals were not sufficiently high

NC[C@H]1O[C@H](O[C@H]2[C@H](O)[C@@H](O[C@H]3O[C@H](CO)[C@@H](O)[C@H](N)[C@H]3O)[C@H](N)C[C@@H]2N)[C@H](N)C[C@@H]1O [tobramycin]
competition with F-c-di-GMP binding to BrlR-C (BrlR-C): outcompeted
effect on BrlR-PbrlR DNA binding (in words) (BrlR-DNA binding (PbrlR)): did not result in an observable difference
Kd (BrlR [1]): 640 µM
decrease of CFU number (log reduction) (P. aeruginosa PAO1; absence of pyocyanin): ~ 3.4 order of magnitude
decrease of CFU number (log reduction) (P. aeruginosa PAO1; presence of 0.2 mM pyocyanin): ~ 1.5 order of magnitude
reduction in CFU number (P. aeruginosa PAO1; with addition of pyocyanin): 1.7 order of magnitude
reduction in CFU number (P. aeruginosa PAO1; without pyocyanin): 4.3 order of magnitude

B1: PmexA (dsDNA)
DNA 1: ACACCTATGAATGTAAGTATTTTGCCTGCCTTCTTCGAGCCGGTGCAGCGCCTTCACGCTGCATCGGCCGCTTTCGCT
DNA 2: AGCGAAAGCGGCCGATGCAGCGTGAAGGCGCTGCACCGGCTCGAAGAAGGCAGGCAAAATACTTACATTCATAGGTGT
binding result (BrlR [3]): binds

B2: BrlR (PA4878) (natural protein)
chain: T4 sequence
notes: also called apo-BrlR; BrlR WT; source: E. coli BL21 DE3, purified (Ni-NTA, tag cleaved by UlpI, Source Q, Superdex 200); not shown: His6-SUMO, N-terminal, cleaved
stoichiometry N [4]: 4

B3: PmexE (dsDNA)
DNA 1: AATCTCGTCGTTCGATTAGTTCCCTGCCGGAGCAGCCCGCAGACTTCGCCAATCCCGAAAAACCGACTGGCGGAGT
DNA 2: ACTCCGCCAGTCGGTTTTTCGGGATTGGCGAAGTCTGCGGGCTGCTCCGGCAGGGAACTAATCGAACGACGAGATT
binding result (BrlR [3]): binds
